Results as given in patent US9375000B2, “Pesticidal arylpyrrolidines” (Bayer Intellectual Property GmbH, priority 2011, dated 2016).

Tests used:
Type in all cases: in vivo
[1] = system: Two-Spotted Spider Mite (Tetranychus urticae); test: Two-spotted spider mite (Tetranychus urticae) spray test on kidney bean; settings: after 7 days
How it was run: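 Kidney bean plants at the two-leaf stage carried 50-100 adult mites and were sprayed one day later with compound in DMF/polyoxyethylene alkyl phenyl ether diluted in water. Ammonium salt and penetration enhancer at 1000 ppm were added if needed. Acaricidal activity (% mites killed) was scored after 7 days in a greenhouse.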

[2] = system: Cucurbit Leaf Beetle (Aulacophora femoralis); test: Cucurbit leaf beetle (Aulacophora femoralis) cucumber leaf dip test; settings: after 7 days
How it was run: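 Cucumber leaves dipped in compound formulated with DMF and polyoxyethylene alkyl phenyl ether, diluted in water, with ammonium salt or ammonium salt plus penetration enhancer at 1000 ppm added if necessary; dried leaves placed on sterilized soil with five second-instar larvae. Kept at 25° C; larval mortality counted after 7 days.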

[3] = system: Larvae of Spodoptera litura; test: Larvae of Spodoptera litura, method using artificial feeds; settings: artificial feed, after 7 days
How it was run: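 Compound formulated in dimethylformamide with polyoxyethylene alkyl phenyl ether emulsifier, water-diluted and poured onto artificial diet. Five 3rd-instar Spodoptera litura larvae per cup, held at 25° C and 50-60% humidity. Mortality after 7 days expressed as pesticidal ratio.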

[4] = active compound concentration 20 ppm
[5] = active compound concentration 4 ppm

O=C(NCc1ccc(N2CCC(c3cc(Cl)cc(Cl)c3)(C(F)(F)F)C2O)cc1Cl)C1CC1 (stereo not drawn) [A1-5]
100%: acaricidal activity [1, 4] | insecticidal activity [2, 4] | insecticidal activity (pesticidal ratio) [3, 4]

CC(=O)NCc1ccc(N2CCC(c3cc(C(F)(F)F)cc(C(F)(F)F)c3)(C(F)(F)F)C2O)cc1F (mixture of isomers) [A1-205]
100%: acaricidal activity [1, 4] | insecticidal activity [2, 4] | insecticidal activity (pesticidal ratio) [3, 4]

C[S+]([O-])CC(=O)NCc1cnc(N2CCC(c3cc(C(F)(F)F)cc(C(F)(F)F)c3)(C(F)(F)F)C2O)nc1C(F)(F)F (stereo not drawn) [A4-32]
100%: acaricidal activity [1, 4] | insecticidal activity [2, 4] | insecticidal activity (pesticidal ratio) [3, 4]

CC(=O)NCc1ccc(N2CCC(c3cc(Cl)cc(Cl)c3F)(C(F)(F)F)C2O)cc1C(F)(F)F (stereo not drawn) [A1-405]
100%: acaricidal activity [1, 5] | insecticidal activity [2, 5] | insecticidal activity (pesticidal ratio) [3, 5]

CS(=O)(=O)CC(=O)NCc1cnc(N2CCC(c3cc(Cl)c(Cl)c(Cl)c3)(C(F)(F)F)C2O)nc1C(F)(F)F (stereo not drawn) [A4-22]
100%: acaricidal activity [1, 4] | insecticidal activity [2, 4] | insecticidal activity (pesticidal ratio) [3, 4]

O=C(NCc1ccc(N2CCC(c3cc(Cl)c(F)c(Cl)c3F)(C(F)(F)F)C2O)cc1C(F)(F)F)C1CC1 (stereo not drawn) [A1-286]
100%: acaricidal activity [1, 4] | insecticidal activity [2, 4] | insecticidal activity (pesticidal ratio) [3, 4]

Cc1cc(N2CCC(c3cc(Cl)c(Cl)c(Cl)c3)(C(F)(F)F)C2O)ccc1CNC(=O)C1CC1 (mixture of isomers) [A1-132]
100%: acaricidal activity [1, 4] | insecticidal activity [2, 4] | insecticidal activity (pesticidal ratio) [3, 4]

CC(=O)NCc1ccc(N2CCC(c3cc(Cl)c(Cl)c(Cl)c3)(C(F)(F)F)C2O)cc1Br (mixture of isomers) [A1-161]
100%: acaricidal activity [1, 4] | insecticidal activity [2, 4] | insecticidal activity (pesticidal ratio) [3, 4]

O=C(NCc1ccc(N2CCC(c3cc(Cl)c(Cl)c(Cl)c3)(C(F)(F)F)C2O)nc1Br)C1CC1 (stereo not drawn) [A3-115]
100%: acaricidal activity [1, 4] | insecticidal activity [2, 4] | insecticidal activity (pesticidal ratio) [3, 4]

CSCC(=O)NCc1cnc(N2CCC(c3cc(Cl)c(Cl)c(Cl)c3)(C(F)(F)F)C2O)nc1C(F)(F)F (stereo not drawn) [A4-20]
100%: acaricidal activity [1, 4] | insecticidal activity [2, 4] | insecticidal activity (pesticidal ratio) [3, 4]

O=C(NCc1ccc(N2CCC(c3ccc(F)c(C(F)(F)F)c3)(C(F)(F)F)C2O)cc1C(F)(F)F)C1CC1 (racemic) [A1-308]
100%: acaricidal activity [1, 4] | insecticidal activity [2, 4] | insecticidal activity (pesticidal ratio) [3, 4]

CCC(=O)NCc1ccc(N2CCC(c3cc(C(F)(F)F)cc(C(F)(F)F)c3)(C(F)(F)F)C2O)nc1C(F)(F)F (stereo not drawn) [A3-24]
100%: acaricidal activity [1, 4] | insecticidal activity [2, 4] | insecticidal activity (pesticidal ratio) [3, 4]

CCC(=O)NCc1ccc(N2CCC(c3cc(Cl)c(F)c(Cl)c3)(C(F)(F)F)C2O)nc1C(F)(F)F (mixture of isomers) [A3-200]
100%: acaricidal activity [1, 4] | insecticidal activity [2, 4] | insecticidal activity (pesticidal ratio) [3, 4]

CCc1nc(N2CCC(c3cc(C(F)(F)F)cc(C(F)(F)F)c3)(C(F)(F)F)C2O)ccc1CNC(=O)C1CC1 (stereo not drawn) [A3-137]
100%: acaricidal activity [1, 4] | insecticidal activity [2, 4] | insecticidal activity (pesticidal ratio) [3, 4]

CCC(=O)NCc1ccc(N2CCC(c3cc(Cl)cc(Cl)c3F)(C(F)(F)F)C2O)nc1C(F)(F)F (stereo not drawn) [A3-345]
100%: acaricidal activity [1, 4] | insecticidal activity [2, 5] | insecticidal activity (pesticidal ratio) [3, 5]

CCC(=O)NCc1ccc(N2CCC(c3cc(Cl)c(F)c(Cl)c3)(C(F)(F)F)C2O)cc1C(F)(F)F (stereo not drawn) [A1-272]
100%: acaricidal activity [1, 4] | insecticidal activity [2, 4] | insecticidal activity (pesticidal ratio) [3, 4]

CS(=O)(=O)CC(=O)NCc1ccc(N2CCC(c3cc(Cl)cc(C(F)(F)F)c3)(C(F)(F)F)C2O)cc1C(F)(F)F (stereo not drawn) [A1-347]
100%: acaricidal activity [1, 4] | insecticidal activity [2, 4] | insecticidal activity (pesticidal ratio) [3, 4]

O=C(NCc1ccc(N2CCC(c3cc(Cl)c(F)c(Cl)c3F)(C(F)(F)F)C2O)nc1Br)C1CC1 (stereo not drawn) [A3-326]
100%: acaricidal activity [1, 4] | insecticidal activity [2, 5] | insecticidal activity (pesticidal ratio) [3, 5]

COCCC(=O)NCc1cnc(N2CCC(c3cc(C(F)(F)F)cc(C(F)(F)F)c3)(C(F)(F)F)C2O)nc1C(F)(F)F (stereo not drawn) [A4-30]
100%: acaricidal activity [1, 4] | insecticidal activity [2, 4] | insecticidal activity (pesticidal ratio) [3, 4]

CSCC(=O)NCc1cnc(N2CCC(c3cc(C(F)(F)F)cc(C(F)(F)F)c3)(C(F)(F)F)C2O)nc1C(F)(F)F (stereo not drawn) [A4-31]
100%: acaricidal activity [1, 4] | insecticidal activity [2, 4] | insecticidal activity (pesticidal ratio) [3, 4]

CCC(=O)NCc1cnc(N2CCC(c3cc(Cl)c(Cl)c(Cl)c3)(C(F)(F)F)C2O)nc1C(F)F (stereo not drawn) [A4-216]
100%: acaricidal activity [1, 5] | insecticidal activity [2, 4] | insecticidal activity (pesticidal ratio) [3, 5]

Cc1cc(N2CCC(c3cc(C(F)(F)F)cc(C(F)(F)F)c3)(C(F)(F)F)C2O)ccc1CNC(=O)C1CC1 (mixture of isomers) [A1-187]
100%: acaricidal activity [1, 4] | insecticidal activity [2, 4] | insecticidal activity (pesticidal ratio) [3, 4]

O=C(CC(F)(F)F)NCc1ccc(N2CCC(c3cccc(C(F)(F)F)c3)(C(F)(F)F)C2O)nc1C(F)(F)F (racemic) [A3-227]
100%: acaricidal activity [1, 4] | insecticidal activity [2, 4] | insecticidal activity (pesticidal ratio) [3, 4]

O=C(CC1CC1)NCc1ccc(N2CCC(c3cc(C(F)(F)F)cc(C(F)(F)F)c3)(C(F)(F)F)C2O)nc1C(F)(F)F (stereo not drawn) [A3-28]
100%: acaricidal activity [1, 4] | insecticidal activity [2, 4] | insecticidal activity (pesticidal ratio) [3, 4]

CCC(=O)NCc1ccc(N2CCC(c3cc(Cl)c(F)c(Cl)c3F)(C(F)(F)F)C2O)cc1C(F)(F)F (stereo not drawn) [A1-283, N-{4-[3-(3,5-dichloro-2,4-difluorophenyl)-2-hydroxy-3-(trifluoromethyl)pyrrolidin-1-yl]-2-(trifluoromethyl)benzyl}propanamide]
100%: pest or weed control at 20 ppm ([1]; Tetranychus urticae, 168 h, active compound concentration 20 ppm, read-out: acaricidal activity) | pest or weed control at 20 ppm ([2]; Aulacophora, foliar, 168 h, active compound concentration 20 ppm, read-out: insecticidal activity) | pest or weed control at 20 ppm ([3]; Spodoptera litura, 168 h, active compound concentration 20 ppm, read-out: insecticidal activity (pesticidal ratio))

O=C(CC(F)(F)F)NCc1ccc(N2CCC(c3cc(Cl)cc(Cl)c3)(C(F)(F)F)C2O)cc1Cl (stereo not drawn) [A1-7]
100%: acaricidal activity [1, 4] | insecticidal activity [2, 4] | insecticidal activity (pesticidal ratio) [3, 4]

CC(=O)NCc1ccc(N2CCC(c3cc(C(F)(F)F)cc(C(F)(F)F)c3)(C(F)(F)F)C2O)cc1Cl (stereo not drawn) [A1-23]
100%: acaricidal activity [1, 4] | insecticidal activity [2, 4] | insecticidal activity (pesticidal ratio) [3, 4]

O=C(CC(F)(F)F)NCc1cnc(N2CCC(c3cc(Cl)c(Cl)c(Cl)c3)(C(F)(F)F)C2O)nc1C(F)(F)F (stereo not drawn) [A4-18]
100%: acaricidal activity [1, 4] | insecticidal activity [2, 4] | insecticidal activity (pesticidal ratio) [3, 4]

COCCC(=O)NCc1ccc(N2CCC(c3cc(Cl)c(Cl)c(Cl)c3)(C(F)(F)F)C2O)nc1C(F)(F)F (stereo not drawn) [A3-19]
100%: acaricidal activity [1, 5] | acaricidal activity [1, 4] | insecticidal activity [2, 5] | insecticidal activity [2, 4] | insecticidal activity (pesticidal ratio) [3, 5] | insecticidal activity (pesticidal ratio) [3, 4]

CCC(=O)NCc1ccc(N2CCC(c3cc(C(F)(F)F)cc(C(F)(F)F)c3)(C(F)(F)F)C2O)cc1Cl (stereo not drawn) [A1-24]
100%: acaricidal activity [1, 4] | insecticidal activity [2, 4] | insecticidal activity (pesticidal ratio) [3, 4]
